Assay results reported in patent publication US20240425478A1, “CYCLOPENTYLPYRAZOLE CDK2 INHIBITORS” (Genentech, Inc., priority 2021, published 2024).
pIC50, pKi: −log10 of the molar value. Where two headings read alike, the source gives them in different places.

Experiments:
[1] = biological target: T1, Cyclin Dependent Kinase 2/Cyclin E1 (CDK2-cycE1) (Homo sapiens, UniProt P24941); assay: CDK2-cycE1 TR-FRET (LANCE) enzyme assay; type: biochemical; details: for FS CDK1/CDK2 / FS CDK4/CDK2: fold selectivity; for increased fold-selectivity CDK4/CDK2 over Comparator C: (+) sign after FS CDK4/CDK2;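 as to improvement in potency against CDK2 (Ki) over Comparator C: fold lower CDK2 Ki than comparator c (Ki 0.032 µM)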
T1 construct: purchased ProQinase 0050-0055-1
Procedure, shortened: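 Kinase reaction buffer: 50 mM HEPES pH 7.5, 10 mM MgCl2, 2 mM TCEP, 0.05% BGG, 0.01% Brij 35, with 30 min compound–enzyme pre-incubation.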

[2] = biological target: T2, Cyclin Dependent Kinase 4/Cyclin D3 (CDK4-cycD3) (Homo sapiens, UniProt P11802); assay: CDK4-cycD3 TR-FRET (LANCE) enzyme assay; type: biochemical; details: Table O, enzymatic assay
T2 construct: purchased Carna Biosciences 04-105
Procedure, shortened: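 Compound dose responses pre-incubated 30 min with enzyme mix in 50 mM HEPES pH 7.5, 10 mM MgCl2, 2 mM TCEP, 0.05% BGG, 0.01% Brij 35. Reaction quenched with EDTA (15 mM final); Eu-anti-phospho-4E-BP1 TR-FRET detection, acceptor/donor ratio. Ki derived by Morrison equation.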

[3] = test system: OVISE (JCRB1043, CCNE1-amplified); assay: OVISE EdU incorporation cell proliferation assay (CDK2-dependent); type: cell-based; details: for pIC50: cellular assay, read-out: CDK2 OVISE IC50; for FS SKOV-3/OVISE / FS p-H3/OVISE: fold selectivity; for FS p-H3/OVISE: cellular p-H3 IC50 over OVISE IC50; for increased fold-selectivity SKOV-3/OVISE over Comparator C: (+) sign after FS SKOV-3/OVISE; for improvement in CDK2 OVISE cell potency over Comparator C: in brackets after OVISE IC50, Comparator C 5.5 μM
Procedure, shortened: (§1)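 EdU incorporation (0.5 μM final, last 8 h) follows a 16 h compound exposure at 37 °C, 5% CO2 in RPMI plus 10% FBS, 0.5% DMSO. After fixation, imaging scores EdU-positive cells; a 4-parameter logistic fit of that fraction gives IC50.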

SKOV-3 (ATCC HTB-77) = assay: SKOV-3 EdU incorporation cell proliferation assay (CDK4/6-dependent); type: cell-based; details: Homo sapiens, cellular assay, read-out: CDK4/6 SKOV-3 IC50
Procedure, shortened: as §1

HCT116 cells = assay: p-H3 HCT-116 mitotic release cell proliferation assay (cellular CDK1); type: cell-based; details: Homo sapiens, HCT-116; Table O, cellular assay; read-out: CDK1 p-H3 IC50
Procedure, shortened: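 Phospho-Histone H3 (Ser10) in lysates was quantified by a two-antibody HTRF FRET read (≥2 h, room temperature). Before this, HCT116 cells held in mitosis by 16 h of 500 nM nocodazole were treated with compound for 4 h at 37 °C, 0.1% DMSO.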

[4] = biological target: T3, Cyclin Dependent Kinase 1/Cyclin A2 (CDK1-cycA2) (Homo sapiens, UniProt P06493); assay: CDK1-cycA2 TR-FRET (Lance) enzyme assay; type: biochemical; details: Table O, enzymatic assay
T3 construct: purchased ProQinase 0134-0054-1
Procedure, shortened: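 TR-FRET (Lance) detection of phospho-4E-BP1 with a europium-labelled antibody after EDTA quench (15 mM final); signal taken as acceptor/donor ratio. Enzyme and compound were pre-incubated 30 min in HEPES pH 7.5 buffer with MgCl2, TCEP, BGG and Brij 35. Ki derived by Morrison fit.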

[5] = Table O, enzymatic assay, read-out: CDK2 Ki
[6] = Table O, enzymatic CDK1 Ki over CDK2 Ki
[7] = Table O, enzymatic CDK4 Ki over CDK2 Ki
[8] = Table Q, enzymatic assay, read-out: CDK2 Ki
[9] = Table O, cellular SKOV-3 IC50 over OVISE IC50

T2 sequence (P11802 whole entry): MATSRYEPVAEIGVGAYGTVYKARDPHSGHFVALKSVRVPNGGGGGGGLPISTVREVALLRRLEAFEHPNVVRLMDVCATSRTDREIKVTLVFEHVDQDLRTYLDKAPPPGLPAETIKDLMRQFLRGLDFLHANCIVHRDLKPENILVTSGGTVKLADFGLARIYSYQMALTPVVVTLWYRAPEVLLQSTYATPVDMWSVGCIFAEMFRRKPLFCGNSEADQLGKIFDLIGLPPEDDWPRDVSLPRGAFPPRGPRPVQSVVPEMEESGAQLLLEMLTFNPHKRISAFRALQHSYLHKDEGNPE
T2 sequence (P30281 whole entry partner): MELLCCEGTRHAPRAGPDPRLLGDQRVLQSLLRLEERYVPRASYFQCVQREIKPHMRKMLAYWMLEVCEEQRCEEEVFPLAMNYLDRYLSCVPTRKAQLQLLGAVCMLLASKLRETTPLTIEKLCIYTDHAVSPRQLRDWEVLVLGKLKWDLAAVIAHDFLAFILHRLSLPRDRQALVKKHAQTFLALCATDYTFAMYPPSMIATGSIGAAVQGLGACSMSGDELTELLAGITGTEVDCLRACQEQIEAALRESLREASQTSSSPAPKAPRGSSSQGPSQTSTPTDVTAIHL
T3 sequence (P06493 whole entry): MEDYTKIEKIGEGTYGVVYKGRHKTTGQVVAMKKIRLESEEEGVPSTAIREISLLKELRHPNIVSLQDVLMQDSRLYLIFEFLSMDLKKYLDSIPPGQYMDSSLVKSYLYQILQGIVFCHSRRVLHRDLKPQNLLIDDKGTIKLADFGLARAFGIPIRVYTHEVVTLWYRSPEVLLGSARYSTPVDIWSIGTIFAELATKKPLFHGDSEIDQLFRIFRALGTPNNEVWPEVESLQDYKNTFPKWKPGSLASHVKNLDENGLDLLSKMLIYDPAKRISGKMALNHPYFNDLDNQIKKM
T3 sequence (P20248 whole entry partner): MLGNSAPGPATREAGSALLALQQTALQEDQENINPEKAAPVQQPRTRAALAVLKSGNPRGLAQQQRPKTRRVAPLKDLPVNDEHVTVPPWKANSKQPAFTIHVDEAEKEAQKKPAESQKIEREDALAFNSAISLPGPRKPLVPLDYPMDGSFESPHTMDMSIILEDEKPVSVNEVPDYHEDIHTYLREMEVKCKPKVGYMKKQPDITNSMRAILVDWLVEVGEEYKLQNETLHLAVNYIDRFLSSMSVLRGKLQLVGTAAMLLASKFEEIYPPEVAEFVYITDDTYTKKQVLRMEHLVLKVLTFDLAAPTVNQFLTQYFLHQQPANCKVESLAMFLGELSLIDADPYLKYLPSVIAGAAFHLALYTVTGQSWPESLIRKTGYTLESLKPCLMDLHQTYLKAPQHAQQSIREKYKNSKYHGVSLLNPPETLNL

SMILES | pKi [1, 5] | FS CDK1/CDK2 [1, 6] | FS CDK4/CDK2 [1, 7] | pKi [2] | pIC50 (SKOV-3 (ATCC HTB-77); SK-OV-3, Table O) | pIC50 (HCT116 cells) | pKi [4] | improvement in potency against CDK2 (Ki) over Comparator C [1] | increased fold-selectivity CDK4/CDK2 over Comparator C ([1]; Table Q) | pKi [1, 8] | FS CDK1/CDK2 ([1]; Table Q, enzymatic) | FS CDK4/CDK2 ([1]; Table Q, enzymatic) | pIC50 ([3]; Table O) | FS SKOV-3/OVISE [3, 9] | FS p-H3/OVISE ([3]; Table O) | increased fold-selectivity SKOV-3/OVISE over Comparator C ([3]; Table Q) | FS SKOV-3/OVISE ([3]; Table Q, cellular) | improvement in CDK2 OVISE cell potency over Comparator C ([3]; Table Q) | pIC50 (SKOV-3 (ATCC HTB-77); SK-OV-3, Table Q) | pKi ([1]; read-out: CDK2 activity / potency (enzymatic assay))
CC(C)NC(=O)O[C@@H]1CC[C@H](c2cc(Nc3ccnc(C(F)(F)F)n3)n[nH]2)C1 [Example 2L, (1R,3S)-3-(3-((2-(trifluoromethyl)pyrimidin-4-yl)amino)-1H-pyrazol-5-yl)cyclopentyl isopropylcarbamate] | 9.77 | 17 | 650 | 6.96 | 6.19 | 8.74 | 8.54 | 188 fold | (+) (The (+) sign in Table Q signifies desirable increased fold-selectivity of the exemplary compounds over Comparator C) | 9.77 | 17 | 650 | 7.92 | 53 | 0.15 | (+) (The (+) sign in Table Q signifies desirable increased fold-selectivity of the exemplary compounds over Comparator C) | 53 | 458 fold | 6.19 | 
CN(C)Cc1ccc(Nc2cc([C@H]3CC[C@@H](OC(=O)NC45CC(C4)C5)C3)[nH]n2)cn1 [Example 9J, (1R,3S)-3-(3-((6-((dimethylamino)methyl)pyridin-3-yl)amino)-1H-pyrazol-5-yl)cyclopentyl bicyclo[1.1.1]pentan-1-ylcarbamate] | 8.72 | 34 | 8.9 | 7.77 | 6.55 | 7.41 | 7.19 |  |  |  |  |  | 7.05 | 3.1 | 0.44 |  |  |  |  | 
CC(C)NC(=O)O[C@@H]1CC[C@H](c2cc(Nc3ccnc(N(C)C)n3)n[nH]2)C1 [Example 2I, (1R,3S)-3-(3-((2-(dimethylamino)pyrimidin-4-yl)amino)-1H-pyrazol-5-yl)cyclopentyl isopropylcarbamate] | 9.51 | 19 | 87 | 7.57 | 6.00 | 8.03 | 8.22 | 103 fold | (+) (The (+) sign in Table Q signifies desirable increased fold-selectivity of the exemplary compounds over Comparator C) | 9.51 | 19 | 87 | 7.17 | 15 | 0.14 | (+) (The (+) sign in Table Q signifies desirable increased fold-selectivity of the exemplary compounds over Comparator C) | 15 | 82 fold | 6.00 | ≥ 9.00

Continued, in another order:

pKi [1, 5] | FS CDK1/CDK2 [1, 6] | FS CDK4/CDK2 [1, 7] | pKi [2] | pIC50 (SKOV-3 (ATCC HTB-77); SK-OV-3, Table O) | pIC50 (HCT116 cells) | pKi [4] | SMILES | improvement in potency against CDK2 (Ki) over Comparator C [1] | increased fold-selectivity CDK4/CDK2 over Comparator C ([1]; Table Q) | pKi [1, 8] | FS CDK1/CDK2 ([1]; Table Q, enzymatic) | FS CDK4/CDK2 ([1]; Table Q, enzymatic) | pIC50 ([3]; Table O) | FS SKOV-3/OVISE [3, 9] | FS p-H3/OVISE ([3]; Table O) | increased fold-selectivity SKOV-3/OVISE over Comparator C ([3]; Table Q) | FS SKOV-3/OVISE ([3]; Table Q, cellular) | improvement in CDK2 OVISE cell potency over Comparator C ([3]; Table Q) | pIC50 (SKOV-3 (ATCC HTB-77); SK-OV-3, Table Q) | pKi ([1]; read-out: CDK2 activity / potency (enzymatic assay))
8.72 | 32 | 79 | 6.82 | 5.48 | 6.68 | 7.21 | Cc1cc(Nc2cc([C@H]3CC[C@@H](OC(=O)NC45CC(C4)C5)C3)[nH]n2)ccn1 [Example 9, (1R,3S)-3-(3-((2-methylpyridin-4-yl)amino)-1H-pyrazol-5-yl)cyclopentyl bicyclo[1.1.1]pentan-1-ylcarbamate] |  |  |  |  |  | 6.77 | 19 | 1.2 |  |  |  |  | 
9.46 | 34 | 60 | 7.68 | 6.33 | 7.34 | 7.92 | Cn1cnc(Nc2cc([C@H]3CC[C@@H](OC(=O)NC45CC(C4)C5)C3)[nH]n2)cc1=O [Example 9B, (1R,3S)-3-(3-((1-methyl-6-oxo-1,6-dihydropyrimidin-4-yl)amino)-1H-pyrazol-5-yl)cyclopentyl bicyclo[1.1.1]pentan-1-ylcarbamate] |  |  |  |  |  | 7.48 | 14 | 1.4 |  |  |  |  | 
